The record followed here is patent publication US9624224B2, “Inhibitors of Bruton's tyrosine kinase” (Pharmacyclics LLC, priority 2013, dated 2017).

The term IC50 denotes the point on the concentration scale where inhibition reaches its midpoint.

Format in all cases: biochemical
The target in assay [1] is T1, BTK (Homo sapiens, UniProt Q06187).
T1 construct: purified from insect cells as a full-length construct containing a N-terminal 6×-His tag; His6 (N); made in house; host or cells: insect cells (baculovirus, Sf21)
T1 sequence (Q06187 whole entry): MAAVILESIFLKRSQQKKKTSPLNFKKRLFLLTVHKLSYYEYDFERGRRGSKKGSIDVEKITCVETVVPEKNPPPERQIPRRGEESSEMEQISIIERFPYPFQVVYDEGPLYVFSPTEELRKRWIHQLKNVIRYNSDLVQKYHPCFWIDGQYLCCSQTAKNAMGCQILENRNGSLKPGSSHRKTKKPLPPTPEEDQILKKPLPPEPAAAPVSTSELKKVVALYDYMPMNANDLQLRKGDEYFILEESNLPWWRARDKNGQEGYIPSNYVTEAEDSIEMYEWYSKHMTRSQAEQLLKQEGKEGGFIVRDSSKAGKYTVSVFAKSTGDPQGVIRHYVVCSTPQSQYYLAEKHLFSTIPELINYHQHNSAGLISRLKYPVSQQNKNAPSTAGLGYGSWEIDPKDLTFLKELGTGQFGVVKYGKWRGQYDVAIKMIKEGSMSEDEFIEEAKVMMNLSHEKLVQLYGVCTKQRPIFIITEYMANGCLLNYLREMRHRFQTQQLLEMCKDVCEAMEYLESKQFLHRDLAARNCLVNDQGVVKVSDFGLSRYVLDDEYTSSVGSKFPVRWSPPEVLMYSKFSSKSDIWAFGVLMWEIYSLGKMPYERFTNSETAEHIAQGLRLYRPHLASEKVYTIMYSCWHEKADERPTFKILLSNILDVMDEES
In words: Btk in vitro inhibitory activity (TR-FRET, mobility shift or radiometric filter binding kinase assay). To be noted: determined using one of the methods outlined in Example 47a, 47b, and 47c. In short, it runs like this:
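Full-length N-His-tagged human Btk from insect cells, 8 nM, preincubated 15 min with inhibitor and 0.2 mg/mL poly-Glu-Tyr (4:1) in pH 7.5 Hepes/MgCl2 buffer, then 1 μM ATP for 120 min at RT; radiometric P81 filter read-out. Alternatives: TR-FRET at [ATP]=Km (0.5 nM Btk, IC50 from Ki(app)) or mobility-shift PSR with 12-point 3× curves, 4-parameter fit.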
(In TR-FRET formats the signal depends on donor and acceptor labels being close together.)

The target in assay [2] is EGFR (Homo sapiens, UniProt P00533). In words: EGFR kinase inhibition (in vitro kinase assay).
Chain of EGFR (P00533 25-1210, species assumed): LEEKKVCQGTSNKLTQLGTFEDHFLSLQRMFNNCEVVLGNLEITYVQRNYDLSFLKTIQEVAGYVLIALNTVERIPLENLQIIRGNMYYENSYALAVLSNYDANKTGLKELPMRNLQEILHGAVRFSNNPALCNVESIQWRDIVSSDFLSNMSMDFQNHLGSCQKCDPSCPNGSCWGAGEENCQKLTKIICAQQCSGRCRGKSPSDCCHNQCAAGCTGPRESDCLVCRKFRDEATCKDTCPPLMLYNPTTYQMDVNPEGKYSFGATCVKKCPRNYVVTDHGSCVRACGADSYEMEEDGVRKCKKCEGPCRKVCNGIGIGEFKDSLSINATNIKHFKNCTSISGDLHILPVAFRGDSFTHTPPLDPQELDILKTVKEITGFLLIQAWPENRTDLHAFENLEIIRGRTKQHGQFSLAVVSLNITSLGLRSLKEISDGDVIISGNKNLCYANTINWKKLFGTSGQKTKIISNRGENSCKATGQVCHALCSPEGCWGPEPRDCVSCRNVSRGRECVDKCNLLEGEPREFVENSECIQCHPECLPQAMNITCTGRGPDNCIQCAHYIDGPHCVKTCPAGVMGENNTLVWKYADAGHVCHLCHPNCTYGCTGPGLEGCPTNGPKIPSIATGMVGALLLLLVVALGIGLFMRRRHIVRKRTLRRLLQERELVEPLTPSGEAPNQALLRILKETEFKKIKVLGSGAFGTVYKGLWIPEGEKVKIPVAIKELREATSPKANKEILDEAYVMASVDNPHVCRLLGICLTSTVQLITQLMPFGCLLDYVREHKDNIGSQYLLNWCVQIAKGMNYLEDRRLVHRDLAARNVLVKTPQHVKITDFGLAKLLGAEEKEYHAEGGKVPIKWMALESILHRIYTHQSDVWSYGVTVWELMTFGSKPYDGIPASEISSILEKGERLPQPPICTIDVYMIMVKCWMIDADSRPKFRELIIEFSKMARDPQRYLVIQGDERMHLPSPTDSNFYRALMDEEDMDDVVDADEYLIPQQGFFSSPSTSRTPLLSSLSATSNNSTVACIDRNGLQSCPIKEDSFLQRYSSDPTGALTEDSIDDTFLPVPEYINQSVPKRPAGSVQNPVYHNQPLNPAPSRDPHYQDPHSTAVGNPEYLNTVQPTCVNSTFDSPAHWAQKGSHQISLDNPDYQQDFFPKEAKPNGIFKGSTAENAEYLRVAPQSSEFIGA
In assay [3] the target is Lck (Homo sapiens, UniProt P06239). Put plainly: Lck kinase inhibition (in vitro kinase assay). The procedure: Btk kinase activity is determined using a time-resolved fluorescence resonance energy transfer (TR-FRET) methodology. Measurements are performed in a reaction volume of 50 μL using 96-well assay plates. […] The reaction is quenched by the addition of 1.2 equivalents of EDTA (relative to divalent cation) in 25 μL of 1× Lance buffer (Perkin-Elmer). Streptavidin-APC (Perkin-Elmer) and Eu-labeled p-Tyr100 antibody (Perkin-Elmer) in 1× Lance buffer are added in a 25 μL volume to give final concentrations of 100 nM and 2.5 nM, respectively, and the mixture is allowed to incubate for one hour. The TR-FRET signal is measured on a multimode plate reader with an excitation wavelength (λEx) of 330 nm and detection wavelengths (λEm) of 615 and 665 nm. Activity is determined by the ratio of the fluorescence at 665 nm to that at 615 nm. For each compound, enzyme activity is measured at various concentrations of compound. Negative control reactions are performed in the absence of inhibitor in replicates of six, and two no-enzyme controls are used to determine baseline fluorescence levels. Inhibition constants, Ki(app), ware obtained using the program BatchKi (Kuzmic et al. (2000), Anal. Biochem. 286:45-50). IC50s are obtained according to the equation: IC50={Ki(app)/(1+[ATP]/Km^ATP)}+[E]total/2;
Chain of Lck (P06239 whole entry, species assumed): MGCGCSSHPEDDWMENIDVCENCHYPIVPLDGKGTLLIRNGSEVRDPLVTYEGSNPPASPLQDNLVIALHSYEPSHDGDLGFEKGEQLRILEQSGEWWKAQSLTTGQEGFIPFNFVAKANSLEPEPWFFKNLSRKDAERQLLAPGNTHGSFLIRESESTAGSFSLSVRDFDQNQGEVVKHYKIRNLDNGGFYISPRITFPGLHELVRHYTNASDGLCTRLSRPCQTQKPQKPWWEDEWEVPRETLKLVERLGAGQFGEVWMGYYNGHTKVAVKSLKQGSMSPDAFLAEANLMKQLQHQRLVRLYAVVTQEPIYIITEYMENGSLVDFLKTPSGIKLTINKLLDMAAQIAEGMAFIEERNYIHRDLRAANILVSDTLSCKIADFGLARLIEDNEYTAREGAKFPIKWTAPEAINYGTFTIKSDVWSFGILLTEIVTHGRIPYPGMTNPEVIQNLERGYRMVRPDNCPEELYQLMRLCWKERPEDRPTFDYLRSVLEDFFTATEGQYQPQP
For all kinases, [ATP]=Km^ATP, [Btk]total=0.5 nM and [Lck]total=6 nM.

The target in assay [4] is T2, Jak3 (Homo sapiens, UniProt P52333).
T2 sequence (P52333 1-1124): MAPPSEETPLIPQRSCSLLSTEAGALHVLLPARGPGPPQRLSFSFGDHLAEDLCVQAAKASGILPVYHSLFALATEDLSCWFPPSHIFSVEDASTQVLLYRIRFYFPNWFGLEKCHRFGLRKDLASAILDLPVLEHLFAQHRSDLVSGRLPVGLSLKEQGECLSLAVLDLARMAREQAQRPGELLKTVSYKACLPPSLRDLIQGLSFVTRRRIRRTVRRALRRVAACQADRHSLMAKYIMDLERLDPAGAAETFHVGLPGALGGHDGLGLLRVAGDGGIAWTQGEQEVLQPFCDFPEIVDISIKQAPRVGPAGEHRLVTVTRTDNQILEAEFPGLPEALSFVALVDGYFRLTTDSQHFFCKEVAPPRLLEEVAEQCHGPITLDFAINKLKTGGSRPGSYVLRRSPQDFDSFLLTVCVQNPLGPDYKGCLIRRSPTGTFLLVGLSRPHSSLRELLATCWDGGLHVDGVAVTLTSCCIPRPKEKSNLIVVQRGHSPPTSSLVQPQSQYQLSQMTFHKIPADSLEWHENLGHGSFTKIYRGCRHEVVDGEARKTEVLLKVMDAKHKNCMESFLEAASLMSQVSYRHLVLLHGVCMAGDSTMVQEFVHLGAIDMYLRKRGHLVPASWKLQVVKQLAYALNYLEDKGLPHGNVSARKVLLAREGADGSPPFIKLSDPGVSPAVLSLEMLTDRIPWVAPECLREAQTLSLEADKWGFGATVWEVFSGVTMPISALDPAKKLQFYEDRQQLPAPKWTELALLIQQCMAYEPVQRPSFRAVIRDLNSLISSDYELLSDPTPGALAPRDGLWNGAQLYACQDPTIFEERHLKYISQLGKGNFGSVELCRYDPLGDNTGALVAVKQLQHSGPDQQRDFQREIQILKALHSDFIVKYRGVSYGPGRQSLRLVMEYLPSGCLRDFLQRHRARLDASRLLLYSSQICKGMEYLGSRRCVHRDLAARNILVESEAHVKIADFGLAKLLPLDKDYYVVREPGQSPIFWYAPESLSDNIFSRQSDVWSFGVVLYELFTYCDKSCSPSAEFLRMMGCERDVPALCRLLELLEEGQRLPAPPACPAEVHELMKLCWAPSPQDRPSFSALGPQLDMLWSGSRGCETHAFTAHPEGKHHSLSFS
In words: Jak3 kinase inhibition (in vitro kinase assay).

Bounds are passed on as bounds.

`Cc1ccnc(NC(=O)c2ccc(-c3nn([C@H]4CC[C@H](NC(=O)/C=C/CN(C)C)CC4)c4ncnc(N)c34)cc2)c1` [Example 28, 4-(4-amino-1-((1,4-trans)-4-((E)-4-(dimethylamino)but-2-enamido)cyclohexyl)-1H-pyrazolo[3,4-d]pyrimidin-3-yl)-N-(4-methylpyridin-2-yl)benzamide]: the half-maximal inhibitory concentration (IC50) in assay [1] was under 100 nM; in assay [2], 100 to 1000 nM; in assay [3], over 10000 nM; in assay [4], over 10000 nM.

As for `CN(C)C/C=C/C(=O)N1CC[C@@H](n2nc(-c3ccc(C(=O)Nc4cc(C(F)(F)F)ccn4)cc3)c3c(N)ncnc32)C1` [Example 26, (R,E)-4-(4-amino-1-(1-(4-(dimethylamino)but-2-enoyl)pyrrolidin-3-yl)-1H-pyrazolo[3,4-d]pyrimidin-3-yl)-N-(4-(trifluoromethyl)pyridin-2-yl)benzamide], the IC50 was under 1 nM in assay [1], 100 to 1000 nM in assay [2], over 10000 nM in assay [3] and over 10000 nM in assay [4].

Regarding `CN(C/C=C/C(=O)N1CC[C@@H](n2nc(-c3ccc(C(=O)Nc4ncc(C#N)s4)cc3)c3c(N)ncnc32)C1)C1CC1` [Example 12, (R,E)-4-(4-amino-1-(1-(4-(cyclopropyl(methyl)amino)but-2-enoyl)pyrrolidin-3-yl)-1H-pyrazolo[3,4-d]pyrimidin-3-yl)-N-(5-cyanothiazol-2-yl)benzamide], the IC50 was under 100 nM in assay [1], under 100 nM in assay [2], under 100 nM in assay [3] and under 1 nM in assay [4].

Take `Cc1ccnc(NC(=O)c2ccc(-c3nn([C@@H]4CCN(C(=O)/C=C/CNC5CC5)C4)c4ncnc(N)c34)cc2)c1` [Example 23, (R,E)-4-(4-amino-1-(1-(4-(cyclopropylamino)but-2-enoyl)pyrrolidin-3-yl)-1H-pyrazolo[3,4-d]pyrimidin-3-yl)-N-(4-methylpyridin-2-yl)benzamide]: the IC50 is under 1 nM in assay [1], 100 to 1000 nM in assay [2], 100 to 1000 nM in assay [3] and over 10000 nM in assay [4].

On to `CNC/C=C/C(=O)N1CC[C@@H](n2nc(-c3ccc(C(=O)Nc4cc(C(F)(F)F)ccn4)cc3)c3c(N)ncnc32)C1` [Example 21, (R,E)-4-(4-amino-1-(1-(4-(methylamino)but-2-enoyl)pyrrolidin-3-yl)-1H-pyrazolo[3,4-d]pyrimidin-3-yl)-N-(4-(trifluoromethyl)pyridin-2-yl)benzamide], for which the IC50 in assay [1] is under 1 nM; in assay [2], under 100 nM; in assay [3], under 100 nM; in assay [4], over 10000 nM.

Turning to `CN(C/C=C/C(=O)N[C@H]1CC[C@H](n2nc(-c3ccc(C(=O)Nc4cc(C(F)(F)F)ccn4)cc3)c3c(N)ncnc32)CC1)C1CC1` [Example 20, 4-(4-amino-1-((1,4-trans)-4-((E)-4-(cyclopropyl(methyl)amino)but-2-enamido)cyclohexyl)-1H-pyrazolo[3,4-d]pyrimidin-3-yl)-N-(4-(trifluoromethyl)pyridin-2-yl)benzamide], the IC50 in assay [1] is under 1 nM; in assay [2], 100 to 1000 nM; in assay [3], under 100 nM; in assay [4], over 10000 nM.

`CC#CC(=O)N[C@H]1CC[C@H](n2nc(-c3ccc(C(=O)Nc4cc(C(F)(F)F)ccn4)cc3)c3c(N)ncnc32)CC1` [Example 19, 4-(4-amino-1-((1,4-trans)-4-but-2-ynamidocyclohexyl)-1H-pyrazolo[3,4-d]pyrimidin-3-yl)-N-(4-(trifluoromethyl)pyridin-2-yl)benzamide]: the IC50 in assay [1] was under 1 nM; in assay [2] it was 100 to 1000 nM; in assay [3], under 100 nM; in assay [4], over 10000 nM.

As to `Cc1ccnc(NC(=O)c2ccc(-c3nn([C@H]4CC[C@H](NC(=O)/C=C/CN(C)C5CC5)CC4)c4ncnc(N)c34)cc2)c1` [Example 29, 4-(4-amino-1-((1,4-trans)-4-((E)-4-(cyclopropyl(methyl)amino)but-2-enamido)cyclohexyl)-1H-pyrazolo[3,4-d]pyrimidin-3-yl)-N-(4-methylpyridin-2-yl)benzamide], the half-inhibitory concentration (IC50) was under 100 nM in assay [1], 100 to 1000 nM in assay [2], over 10000 nM in assay [3] and over 10000 nM in assay [4].

With `CNC/C=C/C(=O)N1CC[C@@H](n2nc(-c3ccc(C(=O)Nc4cc(C)ccn4)cc3)c3c(N)ncnc32)C1` [Example 22, (R,E)-4-(4-amino-1-(1-(4-(methylamino)but-2-enoyl)pyrrolidin-3-yl)-1H-pyrazolo[3,4-d]pyrimidin-3-yl)-N-(4-methylpyridin-2-yl)benzamide], the concentration for half-maximal inhibition (IC50) in assay [1] is under 1 nM; in assay [2], 100 to 1000 nM; in assay [3], 100 to 1000 nM; in assay [4], over 10000 nM.
